In PMC11284896 (Journal of Translational Internal Medicine, 2024):

Target: T1, ABCG2 (Homo sapiens, UniProt Q9UNQ0)
T1 sequence (Q9UNQ0 1-655): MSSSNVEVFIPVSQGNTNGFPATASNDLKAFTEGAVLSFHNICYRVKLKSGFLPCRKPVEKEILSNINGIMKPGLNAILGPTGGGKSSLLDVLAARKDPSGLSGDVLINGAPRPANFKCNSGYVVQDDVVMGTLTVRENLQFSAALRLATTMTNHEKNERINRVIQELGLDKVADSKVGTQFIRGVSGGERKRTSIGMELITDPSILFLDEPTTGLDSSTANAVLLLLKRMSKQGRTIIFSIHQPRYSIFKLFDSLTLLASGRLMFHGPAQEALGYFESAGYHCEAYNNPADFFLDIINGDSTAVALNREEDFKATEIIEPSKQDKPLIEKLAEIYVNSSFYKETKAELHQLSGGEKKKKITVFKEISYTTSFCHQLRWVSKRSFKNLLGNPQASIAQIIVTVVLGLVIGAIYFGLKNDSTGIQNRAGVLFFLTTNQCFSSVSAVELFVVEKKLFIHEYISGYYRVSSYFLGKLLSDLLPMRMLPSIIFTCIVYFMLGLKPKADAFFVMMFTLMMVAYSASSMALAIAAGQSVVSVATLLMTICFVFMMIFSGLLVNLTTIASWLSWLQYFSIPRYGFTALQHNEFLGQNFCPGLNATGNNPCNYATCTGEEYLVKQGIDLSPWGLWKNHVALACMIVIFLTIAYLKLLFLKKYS

With `O=C1c2c(O)ccc(O)c2C(=O)c2c(NCCNCCO)ccc(NCCNCCO)c21` [mitoxantrone] the “radiolabelled substrate efflux and accumulation in ABCG2-overexpressing NCI-H460” value was “the efflux of [^3H]-mitoxantrone from cells overexpressed ABCG2 transporter was considerably diminished in the presence of RN486”.
